From patent US7262301B1, “Zinc-chelating ratiometric fluorescent probes and related methods” (Northwestern University, priority 2003, dated 2007)
Converted amounts (≈) assume the structure as drawn. Where two headings read alike, the source gives them in different places.

Columns and labels:
[1] = system: mouse fibroblast LTK cell line; test: Two-photon emission ratio imaging of fixed fibroblast cells; assay type: cell-based
Experimental: FIG. 5. Emission ratio images of fibroblast (LTK) cells treated with Zinbo-5. (A) Brightfield transmission image; (B) ratio image of the intensities at 445 nm and 402 nm; (C) ratio image following a 30 minute treatment with 10 μM zinc sulfate and 20 μM pyrithione at pH 7.4, 25° C., followed by wash with Zinbo-5 stock; (D) ratio image of the same field after a 15 minute treatment with 1 mM TPEN.
The Zinbo-5 probe was tested in the mouse fibroblast LTK cell line. Cells were fixed, treated with a saturated solution of Zinbo-5 and then imaged with two-photon excitation (TPE) laser scanning microscopy using on Zeiss 510 LSM (upright configuration). The excitation beam produced by the femtosecond pulsed Ti:sapphire laser (Tsunami, Spectra-Physics; 8 W Millennia pump) was tuned to 710 nm, (pumping power 6.5 W with 0.5 W entering the Zeiss AOM) was passed through an LSM 510 microscope with an HFT 650 dichroic (Zeiss) and focused onto coverslip adherent fibroblasts using a 63x oil-immersion objective (Zeiss). The NLO META scan head (Zeiss) allowed data collection in 10.7 nm windows centered at 445 nm and 402 nm.
Cells were imaged in the presence of Zinbo-5 to provide the contrast of unbound dye outside of the cells (FIG. 5). After imaging, the same field of cells was treated with 10 μM zinc sulfate and 20 μM pyrithione, a zinc-selective ionophore, resulting in an anticipated increase in the intracellular ratio of emissions from 445 nm and 402 nm (FIG. 5, d-f). Finally, the intracellular ratio was made equal to that of the surrounding unbound dye by treating the same field of view with TPEN (FIG. 5, g-i).
LTK cells were grown as previously published (Nasir, M. S., et al., JBIC (1999) 4:775-783). Cells grown on coverslips were fixed with 4% formaldehyde on ice for 20 minutes and washed with cold PBS before staining. […] Coverslips were attached to slides using Secure-Seal spacers (Molecular Probes) with the saturated staining solution in the spacer well. […]

[2] = 10 μM ligand, 1 μM Zn(II), pH 7.20, 0.1 M ionic strength, 25° C.; prior art ligands, literature data; cited from earlier work
[3] = Maximal water solubility (saturated staining solution); assay type: physicochemical; conditions: PBS (saturated staining solution), PBS with DMSO stock, on ice
[4] = Binding constant determination: fluorescence intensity ratio (or UV absorbance) in Zn2+/EGTA buffered solutions
Experimental: FIG. 2. (A) Emission spectra of Zinbo-5 with the excitation at 356 nm in Zn^2+/EGTA buffered system (50 mM HEPES, pH 7.20, 0.1 M KNO3; 10 mM EGTA, 1-9 mM zinc sulfate) at 0, 0.14, 0.29, 0.66, 1.1, 1.8, 2.6, 4.0, 6.1, and 11 nM free Zn^2+, respectively. (B) Plots of the fluorescence intensity ratio between 395 nm and 443 nm (I443/I395) with a best curve for a dissociation constant of 2.1±0.1×10^−9.
FIG. 3. UV determination of dissociation constant, Kd: (A) Absorption ratio between at 340 nm and at 374 nm (Abs374/Abs340) in Zn^2+-buffered solution (50 mM HEPES, pH 7.20, 0.1 M KNO3; […], 1-9 mM zinc sulfate).
A series of HEPES (2-[4-(2-hydoroxyethyl)-1-piperazinyl]ethanesulfonic acid) buffer solutions (50 mM, pH 7.20, 0.1 M KNO3) containing various amounts of ZnSO4 (0˜9.5 mM) and 10 mM of EGTA (ethylenebis(oxyethylenenitrilo) tetraacetic acid) were prepared. The concentration of free Zn^2+ was calculated with [EGTA]total, [Zn^2+]total, and K′Zn-EGTA, the apparent binding constant at a given pH and ionic strength. […]
The ratio between 395 nm and 443 nm intensities in the emission spectrum of each solution was measured with the excitation wavelength at 356 nm and was fitted to the following equation (Eq. 2). […]

[5] = Calculated pZn values (-log[Zn]free) for a ligand/zinc solution; assay type: binding
Description: […] […] The Zn^2+ affinity of Zinbo-5 is much higher than that of di(2-picolyl)amine (DPA), indicating—without limitation—that the phenolate oxygen and benoxazole nitrogen are likely chelating the metal as the third and fourth ligands.

[6] = Metal ion selectivity of fluorescence (ratio I443/I395) in biological buffers
Experimental: FIG. 4. Metal ion selectivity of Zinbo-5. Bars are a presentation of the fluorescence ratio I443/I395. Heavy metals (20 μM) and Na^+, K^+, Ca^2+, Mg^2+ (5 mM) were added to 1.5 μM Zinbo-5 in the presence of 10 μM EDTA.

[7] = heavy metals 20 μM, 1.5 μM probe, 10 μM EDTA

c1ccc(CN(CCN(Cc2ccccn2)Cc2ccccn2)Cc2ccccn2)nc1 [TPEN, N,N,N′,N′-tetrakis (2-pyridylmethyl) ethylenediamine, reference compound]
decrease of the intracellular emission ratio ([1]; LTK cells stained with Zinbo-5, zinc loaded, then excess TPEN (1 mM, 15 minute)): 30% | Calculated pZn (-log[Zn]free) [2]: 16.0

COc1cc(O)c(-c2nc3c(CNCc4ccccn4)cccc3o2)cc1OC [Zinbo-5, 2-(4,5-dimethoxy-2-hydroxyphenyl)-4-(2-pyridlmethyl)aminomethylbenzoxazole]
cell permeability [1]: cell permeable | average intracellular increase in the emission ratio (445 nm/402 nm) ([1]; LTK cells after 10 μM zinc sulfate and 20 μM pyrithione): ca. 15% | solubility [3]: 1.5 µM (≈ 0.587 µg/mL) | Zn^2+ affinity compared with di(2-picolyl)amine (DPA) [4]: much higher | Kd ([4]; pH 7.20, fluorescence intensity ratio between 395 nm and 443 nm against log[Zn2+]free, read-out: apparent dissociation constant (Kd) for Zn^2+): 2.2 ± 0.1 nM | Calculated pZn (-log[Zn]free) ([5]; 10 μM ligand, 1 μM Zn(II), pH 7.20, 0.1 M ionic strength, 25° C., the patent's own probe): 9.3 | pZn value (-log[Zn^2+]) ([5]; aqueous solution containing 10 µM ligand and 1 µM zinc ion at pH 7.20 and 0.1 M ionic strength): 9.3 | fluorescence response to Mn^2+, Co^2+, Ni^2+, Fe^+ and Cu^2+ [6, 7]: quenched the fluorescence | fluorescence response to Zn^2+ and Cd^2+ [6, 7]: induced an emission shift | fluorescence response to Na^+, K^+, Ca^2+ and Mg^2+ ([6]; metal concentrations as high as 5 mM): no fluorescent response

carbonic anhydrase
Calculated pZn (-log[Zn]free) [2]: 12.4

O=C1OC2(c3ccccc31)c1cc(Cl)c(O)c(CN(Cc3ccccn3)Cc3ccccn3)c1Oc1c2cc(Cl)c(O)c1CN(Cc1ccccn1)Cc1ccccn1 [Zinpyr-1]
Calculated pZn (-log[Zn]free) [2]: 10.1

O=C(O)CN(CC(=O)O)CC(=O)O [NTA]
Calculated pZn (-log[Zn]free) [2]: 9.0

Cc1ccc(S(=O)(=O)Nc2cc(OCC(=O)O)cc3ccc(C)nc23)cc1 [Zinquin acid]
Calculated pZn (-log[Zn]free) [2]: 9.3

O=C(O)CN(CCOCCOCCN(CC(=O)O)CC(=O)O)CC(=O)O [EGTA, ethylenebis(oxyethylenenitrilo) tetraacetic acid]
Calculated pZn (-log[Zn]free) [2]: 9.5

O=C(O)CN(CCN(CC(=O)O)CC(=O)O)CC(=O)O [EDTA]
Calculated pZn (-log[Zn]free) [2]: 14.3

O=C(O)c1cc(NCCN(Cc2ccccn2)Cc2ccccn2)ccc1-c1c2ccc(=O)cc-2oc2cc(O)ccc12 [ZnAF-1]
Calculated pZn (-log[Zn]free) [2]: 10.1
